Measured values reported in patent US8431593B2, “Heteroaryl amide derivatives” (H. Lundbeck A/S, priority 2006, dated 2013).
pIC50: −log10 of the molar value. Read-outs that look alike come from different tables or passages of the source.

Biological target: T1, P2X7 receptor (Homo sapiens, UniProt Q99572)
T1 construct: host or cells: SH-SY5Y
T1 sequence (Q99572 1-595): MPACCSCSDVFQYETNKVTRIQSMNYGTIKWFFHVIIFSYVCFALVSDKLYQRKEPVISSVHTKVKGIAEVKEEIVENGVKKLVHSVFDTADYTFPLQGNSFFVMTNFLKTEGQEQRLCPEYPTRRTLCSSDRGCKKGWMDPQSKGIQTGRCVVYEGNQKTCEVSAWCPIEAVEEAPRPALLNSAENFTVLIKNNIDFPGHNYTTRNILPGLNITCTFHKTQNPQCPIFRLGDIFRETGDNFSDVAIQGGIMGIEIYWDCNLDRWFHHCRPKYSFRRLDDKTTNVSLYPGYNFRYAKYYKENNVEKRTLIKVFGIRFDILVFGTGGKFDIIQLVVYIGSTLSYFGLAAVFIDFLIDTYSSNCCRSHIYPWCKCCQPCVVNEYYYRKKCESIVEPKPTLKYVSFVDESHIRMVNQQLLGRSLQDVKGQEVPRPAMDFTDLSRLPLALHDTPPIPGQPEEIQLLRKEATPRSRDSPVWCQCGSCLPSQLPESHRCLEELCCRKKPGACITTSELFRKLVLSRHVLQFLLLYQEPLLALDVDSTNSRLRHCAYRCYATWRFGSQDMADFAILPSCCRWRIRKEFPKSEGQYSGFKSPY
Experiment: P2X7 calcium mobilization assay, high throughput, antagonist activity (Example 4A)
Assay type: cell-based
Procedure, shortened: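 100,000 cells/well, plated day -1. Dye 1 h → rinse → compound 1 h, RT → FLIPR^TETRA Ca2+ mobilization. Max RFU minus mean negative control (no agonist); mean agonist-well max as positive control.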

[1] = SH-SY5Y cells, 50% decrease in fluorescence response to 80 μM BzATP, read-out: IC50
[2] = 50% decrease in the fluorescence response of cells exposed to 80 μM 2′(3′)-O-(4-benzoyl-benzoyl)adenosine 5′-triphosphate, Example 4A, read-out: IC50
[3] = fluorescence response of cells exposed to 80 μM 2′(3′)-O-(4-benzoyl-benzoyl)adenosine 5′-triphosphate, Example 4A, read-out: IC50
[4] = 50% decrease in the fluorescence response of cells exposed to 80 μM of 2′(3′)-O-(4-benzoyl-benzoyl)adenosine 5′-triphosphate, determined as in Example 4A, read-out: IC50

SMILES: CN1CCC(N(C)C(=O)Cc2cn3c(C(=O)NCC45CC6CC(CC(C6)C4)C5)cccc3n2)C1 (centres unmarked) [Compound 39, N-(adamantan-1-ylmethyl)-2-{2-[methyl(1-methylpyrrolidin-3-yl)amino]-2-oxoethyl}imidazo[1,2-a]pyridine-5-carboxamide]
- pIC50 [1]: > 5.70

SMILES: CN(CCO)Cc1cn2c(C(=O)NCC34CC5CC(CC(C5)C3)C4)cccc2n1 [Compound 131, N-(adamantan-1-ylmethyl)-2-{[(2-hydroxyethyl)(meth-yl)amino]methyl}imi-dazo[1,2-a]pyridine-5-carboxamide]
- pIC50: > 5.70

SMILES: CC(C)(C)C(O)CNC(=O)c1cn2c(C(=O)NC[C@@H]3CC[C@H]4C[C@@H]3C4(C)C)cccc2n1 (stereo partly drawn) [Compound 528, 5-N-{[(1S,2R,5S)-6,6-dimethylbicyclo[3.1.1]hept-2-yl]methyl}-2-N-(2-hydroxy-3,3-dimethylbutyl)imidazo [1,2-a]pyridine-2,5-dicarboxamide]
- pIC50 [2]: > 5.70

SMILES: COCCN(C(=O)c1cn2c(NC(=O)CC34CC5CC(CC(C5)C3)C4)cccc2n1)C(C)C [Compound 379, 5-[(adamantan-1-ylacetyl)amino]-N-isopropyl-N-(2-methoxyethyl)imidazo [1,2-a]pyridine-2-carboxamide]
- pIC50 [3]: > 5.70

SMILES: CCOC(=O)C(CC1CC1)c1cn2c(C(=O)NCC34CC5CC(CC(C5)C3)C4)cccc2n1 (centres unmarked) [Compound 1001, ethyl 2-{5-[(adamantan-1-ylmethyl)carbamoyl]imidazo[1,2-a]pyridin-2-yl}-3-cyclopropylpropanoate]
- pIC50 [4]: > 5.70

SMILES: CC1(C)[C@@H]2CC[C@@H](CNC(=O)c3cccc4nc(CC(=O)N5C[C@@H]6C[C@H]5CN6)cn34)[C@H]1C2 [Compound 559, 2-{2-[(1S,4S)-2,5-diazabicyclo[2.2.1]hept-2-yl]-2-oxoethyl}-N-{[(1R,2R,5R)-6,6-dimethylbicyclo[3.1.1]hept-2-yl]methyl}imidazo[1,2-a]pyridine-5-carboxamide]
- pIC50 [2]: > 5.70

SMILES: CC(O)CNC(=O)c1cn2c(C(=O)NCC34CC5CC(CC(C5)C3)C4)cccc2n1 (centres unmarked) [Compound 86, 5-N-(adamantan-1-ylmethyl)--(2-hydroxy-propyl)imidazo[1,2-a]pyridine-2,5-dicarboxamide]
- pIC50 [1]: > 5.70

SMILES: CCOC(=O)C(=O)N(CC)Cc1cn2c(C(=O)NCC34CC5CC(CC(C5)C3)C4)cccc2n1 [Compound 541, ethyl [({5-[(adamantan-1-ylmethyl)carbamoyl]imidazo[1,2-a]pyridin-2-yl}methyl)(ethyl)amino] (oxo)acetate]
- pIC50 [2]: > 5.70

SMILES: CCCCN(C)C(=O)c1cn2c(C(=O)NC[C@@H]3CC[C@H]4C[C@@H]3C4(C)C)cccc2n1 [Compound 471, 2-N-butyl-5-N-{[(1S,2R,5S)-6,6-dimethylbicyclo[3.1.1]hept-2-yl]methyl}-2-N-methylimidazo[1,2-a]pyridine-2,5-dicarboxamide]
- pIC50 [2]: > 5.70

SMILES: O=C(NCC12CC3CC(CC(C3)C1)C2)c1cccc2nc(C3(C(=O)O)CCCCC3)cn12 [Compound 851, 1-{5-[(adamantan-1-ylmethyl)carbamoyl]imidazo [1,2-a]pyridin-2-yl} cyclohexane-carboxylic acid]
- pIC50 [4]: > 5.70

SMILES: CC(C)[C@H]1CN(C(=O)c2cn3c(C(=O)NC[C@@H]4CC[C@H]5C[C@@H]4C5(C)C)cccc3n2)CCN1 [Compound 308]
- pIC50 [3]: > 5.70

SMILES: O=C(Cc1cn2c(C(=O)NCC34CC5CC(CC(C5)C3)C4)cccc2n1)NCC1CC1 [Compound 147, N-(adamantan-1-ylmethyl)-2-{2-[(cyclopropylmeth-yl)amino]-2-oxoethyl}imidazo[1,2-a]pyridine-5-carboxamide]
- pIC50 [1]: > 5.70

SMILES: NC1CN(C(=O)c2cn3c(C(=O)NCC45CC6CC(CC(C6)C4)C5)cccc3n2)C1 [Compound 635, N-(adamantan-1-ylmethyl)-2-[(3-aminoazetidin-1-yl)carbonyl]imidazo[1,2-a]pyridine-5-carboxamide]
- pIC50 (50% decrease in the fluorescence response of cells exposed to 80 μM of 2′(3′)-O-(4-benzoyl-benzoyl)adenosine 5′-triphosphate, Example 4A, read-out: IC50): > 5.70

SMILES: COC1CCN(C(=O)c2cn3c(C(=O)NCC45CC6CC(CC(C6)C4)C5)cccc3n2)CC1 [Compound 95, N-(adamantan-1-ylmethyl)-2-[(4-methoxypiperidin-1-yl)carbonyl]imidazo[1,2-a]pyridine-5-carboxamide]
- pIC50 [1]: > 5.70
